# “Also recorded” adds a separate entry of the source. Square brackets hold non-standard residues; d marks the D form. Peptide text beside a SMILES is read from it. Phe(4-guanidino) = N=C(N)Nc1ccc(C[C@H](N)C(=O)O)cc1
# How the values were obtained:
# [1] = test system: Lactate Dehydrogenase A [LDHA]; assay: LDH activity assay on lysates of treated NCI-H460 cells (Abcam ab102526); type: cell-based, human; details: NCI-H460 cells treated 24 h or 96 h, normalised to protein; read-out: IC50 for inhibiting the activity of LDH
# Experimental: An LDH activity assay was conducted on samples derived from NCI-H460 cells treated with 2 test compounds (HILR-025 and HILR-030) for either 24h or 96h. […] Therefore a BCA assay was conducted to estimate the total amount of protein present in each LDH assay lysate and this was used to normalise the enzyme activity data. As an indication of cell viability, an Alamar blue assay was also carried out at both timepoints, to serve as an additional point of reference.
# 2) Cells were harvested and seeded into 96-well plates at either 500 cells/well (for the 96h timepoint) or 5000 cells/well for the 24h timepoint. […] 6) At the end of the assay (24 or 96h), Alamar blue 10% (v/v) was added to one set of plates, incubated for a further 4 hours, and fluorescent product detected using the BMG FLUOstar plate reader. […] 10) LDH activity was measured in the cleared lysates using an LDH activity kit (Abcam, ab102526). 11) After preparation of the LDH activity assay reactions, according to the manufacturer's instructions, absorbance at 450 nm was measured at the initial time to determine (A450)initial 12) Further absorbance readings were taken at 3 minute intervals for up to 15 minutes. […] 16) The LDH activity of each sample was determined by the following equation:
# [formula] […] Protein content in remaining cleared lysates was determined using a BCA assay (ThermoScientific). • b. Data were analysed using GraphPad Prism. […]
# NCI-H460 cells [2] = details: NCI-H460, 96 hours with compound, alamarBlue
# Experimental: Methods measuring cell viability include the use of alamarBlue® cell viability reagent (Life Technologies, Inc.) (resazurin) with fluorescence detection.
# 1) NCI-H460 cells were grown in Ham's F12 media supplemented with 10% FBS. 2) Cells were harvested and seeded into 96-well plates at 500 cells/well. 3) Compounds were made up from stock solutions and added directly to cells in doubling dilutions starting at 200 μM. Final DMSO concentration was 0.2%. 4) Cells were grown with compound for 96 hours at 37° C. 5% CO2 in a humidified atmosphere. 5) A resazurin dye composition (AlamarBlue® cell viability reagent (Life Technologies, Inc.)) 10% (v/v) was then added and incubated for a further 4 hours, and fluorescent product detected using the BMG FLUOstar plate reader. 6) Media only background readings were subtracted before data were analysed using a 4-parameter logistic equation in GraphPad Prism.
# [3] = target: T1, recombinant human caspase 3 (Homo sapiens, UniProt P42574); assay: Apo-ONE Homogeneous Caspase-3/7 assay with recombinant caspase-3; type: biochemical; details: 0.1 or 0.3 U enzyme
# T1 construct: purchased Enzo Life Sciences BML-SE169-5000
# T1 sequence (P42574 29-175 limits assumed): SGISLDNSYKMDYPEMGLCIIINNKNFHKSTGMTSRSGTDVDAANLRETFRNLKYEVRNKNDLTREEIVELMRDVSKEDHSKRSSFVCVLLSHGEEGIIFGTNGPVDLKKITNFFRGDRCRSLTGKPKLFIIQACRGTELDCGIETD
# T1 sequence (P42574 176-277 limits assumed): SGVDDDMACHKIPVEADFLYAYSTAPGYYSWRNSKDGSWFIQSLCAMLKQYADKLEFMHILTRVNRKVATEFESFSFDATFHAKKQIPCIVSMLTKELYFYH
# Text: DEVD-CHO was used as a positive control.
# The Promega kit consists of a buffer that supports caspase 3/7 enzymatic activity and the caspase-3/7 substrate rhodamine 110, bis-(N-CBZL-aspartyl-L-glutamyl-L-valyl-L-aspartic acid amide; Z-DEVD-R110) Z-DEVD-R110 exists as a pro-fluorescent substrate prior to the assay;
# upon sequential cleavage and removal of the DEVD peptides by caspase-3/7 activity and excitation at 499 nm, the rhodamine 110 leaving group becomes fluorescent. The amount of fluorescent product generated is reported to be proportional to the amount of caspase-3/7 cleavage that occurs in the sample.
# In all subsequent experiments, 0.1 U enzyme was used and plate reader settings were adjusted to read every 5 min for 2h.
# The DEVD-CHO control or HILR-030 were co-incubated for 2 hours with substrate or human recombinant caspase-3 according to the protocol in the table below.
# NCI-H460 cells [4] = assay: HILR-001 with or without 30 nM Olaparib on NCI-H460, alamarBlue and CellTiter-Glo time course; type: cell-based, human
# Experimental: At each time point cell viability was measured by two assay readouts, alamarBlue® and CellTiter-Glo. Conversion of alamarBlue® to a fluorescent product serves as a readout of the metabolic activity of cells, whereas CellTiter-Glo is based on quantification of the ATP present.
# 2) Cells were harvested and seeded into 96-well plates at 500 cells/well. 3) HILR-001 was made up from a 10 mM stock solution and added directly to cells in doubling dilutions starting at 200 μM. […] The total final DMSO concentration was 0.25%. 4) Cells were grown with compound for 24, 48, 72 or 96 hours at 37° C. 5% CO2 in a humidified atmosphere. 5) AlamarBlue® 10% (v/v) was then added and incubated for a further 4 hours, and fluorescent product detected using the BMG FLUOstar plate reader. 6) On duplicate plates the media was removed from the cells, CellTiter-Glo was diluted in PBS (1:10) and 100 μl added to the cells. 7) Plates were mixed on an orbital shaker for 2 minutes and incubated for a further 10 minutes at room temperature. Luminescent signal was then measured using the BMG FLUOstar plate reader.
# [5] = test system: NCI-H460 human non-small cell cancer; assay: In vitro cytotoxicity of Olaparib on NCI-H460, alamarBlue, 96 h; type: cell-based; details: 30 nM Olaparib
# Experimental: 2) Cells were harvested and seeded into 96-well plates at 500 cells/well. […] Final DMSO concentration was 0.3%. 4) Cells were grown with compound for 96 hours at 37° C. 5% CO2 in a humidified atmosphere. 5) AlamarBlue® cell viability reagent (Life Technologies, Inc.) 10% (v/v) was then added and incubated for a further 4 hours, and fluorescent product detected using the BMG FLUOstar plate reader. 6) Data were analysed using a 4-parameter logistic equation in GraphPad Prism.
# [6] = 30 nM Olaparib co-incubated with 50 μM HILR-001
SMILES,IC50 [1],IC50 (NCI-H460 cells [2]),caspase-3 activity [3],ATP levels (CellTiter-Glo) (NCI-H460 cells [4]; [6]),HILR-001-mediated cell death (alamarBlue) (NCI-H460 cells [4]; [6]),ATP levels or cancer cell death (NCI-H460 cells [4]; Olaparib with higher doses of HILR-001 (100 μM and 200 μM)),toxicity to NCI-H460 cells [5]
CC(C)[C@@H]1NC(=O)[C@@H]2CCCN2C(=O)[C@H](CCCNC(=N)N)NC(=O)[C@@H]2CCCN2C(=O)CNC(=O)[C@H](CCCNC(=N)N)NC(=O)[C@@H]2CCCN2C(=O)[C@H](Cc2c[nH]c3ccccc23)NC(=O)[C@H](Cc2c[nH]c3ccccc23)NC(=O)[C@H](Cc2ccc(NC(=N)N)cc2)NC(=O)[C@H](Cc2ccc(NC(=N)N)cc2)NC(=O)[C@H](Cc2c[nH]c3ccccc23)NC(=O)[C@H](Cc2c[nH]c3ccccc23)NC(=O)[C@H](Cc2ccc(NC(=N)N)cc2)NC(=O)[C@H](Cc2ccc(NC(=N)N)cc2)NC(=O)[C@H](Cc2c[nH]c3ccccc23)NC(=O)[C@H](Cc2c[nH]c3ccccc23)NC1=O [HILR-030] (cyclo(PRGPRPVWW[Phe(4-guanidino)][Phe(4-guanidino)]WW[Phe(4-guanidino)][Phe(4-guanidino)]WW)),22 µM,6 µM,inhibited the caspase-3 activity in a dose-dependent fashion,–,–,–,–
"O=C(c1cc(Cc2n[nH]c(=O)c3ccccc23)ccc1F)N1CCN(C(=O)C2CC2)CC1 [Olaparib, 4-[3-(4-cyclopropanecarbonylpiperazine-1-carbonyl)-4-fluorobenzyl]-2H-phthalazin-1-one]",–,–,–,partially reverses the HILR-001-induced fall in ATP; also recorded: partially restored ATP levels,reversed 50 μM HILR-001-mediated cell death,did not affect ATP levels or cancer cell death,non-toxic

# From patent publication US20190046600A1, “COMPOSITIONS AND USES THEREOF” (priority 2016, published 2019)
